Columns and labels:
[1] = Intrinsic dissolution rate (Van Kel VK7000 dissolution tester, Wood's die); assay type: physicochemical; settings: for Dissolution Rate: pH 6.8 (20 mM sodium phosphate), 37° C., 100 rpm
Procedure: 6. Dissolution Studies Intrinsic dissolution rates were evaluated using Van Kel VK7000 dissolution tester and 400 mL dissolution bath with a rotation rate of 100 rpm at 37° C. Samples were prepared using approximately 50 mg of API in a 6 mm diameter Wood's die with compression force of 3 kN and 15 seconds dwell time by Carver press. The test was performed in 400 mL of pH 6.8 (20 mM sodium phosphate). Samples were collected at 2, 5, 10, 15, 20, 25, and 30 minutes, and the collected samples were unfiltered or filtered using […] PDVF filter. The concentrations of the drug were determined by HPLC using isocratic Method with fluorescence detection.

[2] = Dynamic Vapor Sorption (DVS) moisture gain; assay type: physicochemical; settings: through 85% RH at 25° C.; for hygroscopic properties (DVS): conditions used in the analysis
Procedure: 4. Dynamic Vapor Sorption Dynamic water sorption analyses were performed using Surface Measurement Systems DVS or DVS-HT, or VTI SGA-100 instruments. Sample sizes ranged from 4 mg to 13 mg. Three cycles of water sorption/desorption were run at 25° C. with change of relative humidity from 5-10% increments from 5% to 95%. The criteria for the step were weight change less than or equal to 0.002% or maximum time of 3 hours.

Row | dissolution rate relative to the sodium salt or HEA ([1]; pH 6.8) | Dissolution Rate [1] | moisture gain by Dynamic Vapor Sorption [2] | hygroscopic properties (DVS) [2] | dissolution rate compared with the sodium salt ([1]; pH 6.8) | Structure (SMILES)
1 | > 10 fold | 64.4 µg/min/mL | < 4% | non-hygroscopic or slightly hygroscopic |  | C=C[C@@H]1C[C@]1(NC(=O)[C@@H]1C[C@@H](Oc2cc(-c3csc(NC(=O)C(C)C)n3)nc3c(Br)c(OC)ccc23)CN1C(=O)[C@@H](NC(=O)OC1CCCC1)C(C)(C)C)C(=O)O [TH]
2 |  | 1.1 µg/min/mL | < 2.5% | non-hygroscopic | comparable to the sodium salt | C=C[C@@H]1C[C@]1(NC(=O)[C@@H]1C[C@@H](Oc2cc(-c3csc(NC(=O)C(C)C)n3)nc3c(Br)c(OC)ccc23)CN1C(=O)[C@@H](NC(=O)OC1CCCC1)C(C)(C)C)C(=O)O [HEA]
3 |  | 1.3 µg/min/mL |  |  |  | C=C[C@@H]1C[C@]1(NC(=O)[C@@H]1C[C@@H](Oc2cc(-c3csc(NC(=O)C(C)C)n3)nc3c(Br)c(OC)ccc23)CN1C(=O)[C@@H](NC(=O)OC1CCCC1)C(C)(C)C)C(=O)O [NA]
